Experimental data as given in article PMC4785407, “Reduction Impairs the Antibacterial Activity but Benefits the LPS Neutralization Ability of Human Enteric Defensin 5” (Scientific Reports, 2016).
Entries after “also recorded” stand apart in the source; their conditions may differ. Bridge positions count the residues as written; N and C are the ends. Peptide text beside a SMILES is read from it.

What was measured:
[1] = tested on: E. coli; assay: Antibacterial assay in the presence of LPS; format: cell-based; details: 4 μg/mL LPS, 12.5 μg/mL peptide
Protocol: (B) Heat release of the interaction between 1 mg/mL of the peptides and 10 μg/mL of LPS. Shown is the relationship between the enthalpy value (△H) and the weight ratio of peptides to LPS. […] The antibacterial efficiency is presented as the bacterial lethal rate, which is calculated by dividing the number of killed colonies by the number of colonies remaining after treatment with sterile water or 0.25 mM DTT. Statistical significance was determined by the Student’s t-test. n.s, not significant; **p < 0.01.

[2] = Isothermal titration calorimetry (ITC), peptides and LPS; format: binding; details: for interaction with LPS (heat release): 1 mg/mL peptide, 10 μg/mL LPS, 25 °C, repeated three times
Protocol: Interactions between peptides and LPS were monitored using a MicroCal ITC200 system (Malvern, UK) at 25 °C. The concentration of the peptides in the syringe was 1 mg/mL (40 μL). LPS was prepared in sterile water at a concentration of 10 μg/mL (300 μL per cell). Twenty injections (0.2 μL for the first injection and 2 μL for the remaining injections) were applied at 120 s intervals and at a stirring rate of 1,000 rpm. The data were processed by subtracting the baseline heat release from titrations of sterile water into LPS and from 20 mM DTT into LPS. The experiment was repeated three times.

[3] = tested on: interaction between LPS and LBP (mouse LBP); assay: LPS-binding protein (LBP) block assay; format: biochemical; details: for effect on the interaction between LPS and LBP: 50 μg/mL peptide, mouse LBP 60 ng/mL, biotinylated LPS 50 ng/mL
Protocol: The effects of peptides on the interaction between LPS and low concentrations of LBP were determined as previously described. Briefly, the plates of a LBP ELISA kit (Boster EK1274) were blocked by the incubation of 1% BSA prepared in 10 mM sodium phosphate buffer (pH 7.4) at 37 °C for 1 h, which were subsequently washed with 0.1% Tween-20. Aliquots of 100 μL of mouse LBP (Sigma SRP6034, 60 ng/mL) were added and incubated at 37 °C for 1.5 h. Peptides were prepared in sterile water, with concentrations of 12.5, 25, and 50 μg/mL, respectively. Biotinylated LPS (50 ng/mL) was added in the absence or presence of peptides (pre-incubated at 37 °C for 30 min). Polymyxin B (200 ng/mL) was used as a positive control. The binding of LPS to LBP was determined using a chromogenic reaction between HRP-conjugated streptavidin (Boster BA1088) and TMB (Sigma 860336). Data were processed by subtracting the absorbance in the absence of LPS. Statistical significance was determined by the Student−Newman−Keuls multiple comparisons test.
Figure 5. The efficiencies of peptides in blocking the interaction between LPS and LBP. A LBP ELISA plate was blocked by 1% BSA and subsequently washed with 0.1% Tween-20. Aliquots of 100 μL of the mouse LBP (60 ng/mL) was added and incubated at 37°C for 1.5 h. Peptides were prepared in sterile water, with concentrations of 12.5, 25, and 50 μg/mL, respectively. Biotinylated LPS (50 ng/mL) was then added in the absence or presence of peptides (pre-incubated at 37°C for 30 min). Data were processed by subtracting the absorbance in the absence of biotinylated LPS. Statistical significance was determined by the Student−Newman−Keuls multiple comparisons test. n.s, not significant; **, p < 0.01, relative to the value of the group solely treated with LPS.

[4] = tested on: E. coli ML35 cells; assay: Membrane depolarization, flow cytometry DiBAC4(3); details: 6.25 μg/mL; for DP (depolarized cells): 37 °C, 1 h, DiBAC4(3) flow cytometry, representative scatter plot
[5] = tested on: Escherichia coli (ATCC 25922); assay: virtual colony count assay, E. coli; format: cell-based; details: for LD50 (Lethal Dose that kills 50% of bacteria) / LD90 (Lethal Dose that kills 90% of bacteria): ATCC 25922 E. coli, 1 × 10^6 CFU/mL, 10 mM sodium phosphate buffer pH 7.4, 1% TSB, 37 °C, 1 h, duplicate, repeated three times
Protocol: (§1) Figure 3 Reduction attenuates the antibacterial activity of HD5OX against Gram-negative bacteria. […] Peptides were prepared in sterile water, with the final concentrations of 0.78, 1.56, 3.13, 6.25, 12.5, and 25 μg/mL. […] Zero survival points are not plotted.

[6] = tested on: Salmonella enterica serovar Typhimurium (ATCC 14028); assay: virtual colony count assay, S. Typhimurium; format: cell-based; details: for LD50 (Lethal Dose that kills 50% of bacteria) / LD90 (Lethal Dose that kills 90% of bacteria): ATCC 14028 S. Typhimurium, 1 × 10^6 CFU/mL, 10 mM sodium phosphate buffer pH 7.4, 1% TSB, 37 °C, 1 h, duplicate, repeated three times
Protocol: as §1

[7] = Circular dichroism (CD) spectroscopy; format: physicochemical; details: 27 °C; for CD secondary structure in the presence of LPS: 100 μg/mL peptide, 100 μg/mL LPS; for CD secondary structure in SDS micelles: 100 μg/mL, 20 mM SDS
Protocol: The conformational properties of the peptides were analyzed using an Applied Photophysics Chirascan instrument at 27 °C. A cell with a 1-mm path length was utilized. The CD spectra were obtained from 190–280 nm at 1 nm intervals. The time-per-point was 0.5 s, and the scanning time was approximately 73 s. Peptides (100 μg/mL, 250 μL) prepared in sterile water were examined in the presence of 20 mM sodium dodecyl sulfate (SDS) and 100 μg/mL LPS. Before scanning, peptides were incubated with SDS and LPS at room temperature for 1 h. The data obtained from three independent scans were averaged and smoothed by Pro-Data Chirascan software (version 4.1).

[8] = virtual colony count, 0.78-25 μg/mL, HD5OX vs HD5RED

Compound | antibacterial efficiency in presence of LPS [1] | interaction with LPS (heat release) [2] | effect on the interaction between LPS and LBP [3] | DP (depolarized cells) [4] [%] | LD50 (Lethal Dose that kills 50% of bacteria) [5] [µg/mL] | LD90 (Lethal Dose that kills 90% of bacteria) [5] [µg/mL] | antibacterial action against E. coli, relative [5, 8] | LD50 (Lethal Dose that kills 50% of bacteria) [6] [µg/mL] | LD90 (Lethal Dose that kills 90% of bacteria) [6] [µg/mL] | antibacterial action against S. Typhimurium, relative [6, 8] | CD secondary structure in the presence of LPS [7] | CD secondary structure in SDS micelles [7] | LPS-binding, relative ([2]; weight ratios ≥8.0, vs HD5OX) | LBP-blocking, dose dependence ([3]; 12.5, 25, and 50 μg/mL) | membrane depolarization, relative ([4]; HD5RED vs HD5OX, mean of three independent experiments) | fold of concentration needed to inactivate 90% relative to HD5OX ([5]; E. coli ATCC 25922, higher than HD5OX) | fold of concentration needed to inactivate 90% relative to HD5OX ([6]; S. Typhimurium ATCC 14028, higher than HD5OX) | CD secondary structure in aqueous ([7]; 100 μg/mL in sterile water, vs HD5OX)
CC[C@H](C)[C@@H]1NC(=O)[C@H](CCC(=O)O)NC(=O)[C@@H]2CSSC[C@@H]3NC(=O)[C@H](Cc4ccc(O)cc4)NC(=O)[C@@H](NC(=O)[C@@H](NC(=O)[C@H](C)N)[C@@H](C)O)CSSC[C@@H](C(=O)N[C@@H](CCCNC(=N)N)C(=O)O)NC(=O)[C@H](CSSC[C@H](NC(=O)[C@H](CCCNC(=N)N)NC(=O)CNC(=O)[C@H]([C@@H](C)O)NC(=O)[C@H](CCCNC(=N)N)NC3=O)C(=O)N[C@@H](C)C(=O)N[C@@H]([C@@H](C)O)C(=O)N[C@@H](CCCNC(=N)N)C(=O)N[C@@H](CCC(=O)O)C(=O)N[C@@H](CO)C(=O)N[C@@H](CC(C)C)C(=O)N[C@@H](CO)C(=O)NCC(=O)N[C@@H](C(C)C)C(=O)N2)NC(=O)[C@H](CC(C)C)NC(=O)[C@H](CCCNC(=N)N)NC(=O)[C@H](Cc2ccc(O)cc2)NC(=O)[C@H](CC(C)C)NC(=O)[C@H](CCCNC(=N)N)NC(=O)CNC(=O)[C@H](CO)NC1=O [HD5OX, Oxidized human defensin 5] (H-ATCYCRTGRCATRESLSGVCEISGRLYRLCCR-OH; disulfide 3-31, 5-20, 10-30; N-terminus and C-terminus assumed) | virtually unaffected | exothermically interacted with 10 μg/mL of LPS | less effect on the interaction between LPS and LBP | 31.8 | 3.2 ± 0.7 | 7.6 ± 1.1 | more potent action against these bacteria than HD5RED | 4.6 ± 0.5 | 9.6 ± 0.7 | more potent action against these bacteria than HD5RED | slightly red-shifted | maintained the β-sheet structures | – | – | – | – | – | –
CC[C@H](C)[C@H](NC(=O)[C@H](CCC(=O)O)NC(=O)[C@H](CS)NC(=O)[C@@H](NC(=O)CNC(=O)[C@H](CO)NC(=O)[C@H](CC(C)C)NC(=O)[C@H](CO)NC(=O)[C@H](CCC(=O)O)NC(=O)[C@H](CCCNC(=N)N)NC(=O)[C@@H](NC(=O)[C@H](C)NC(=O)[C@H](CS)NC(=O)[C@H](CCCNC(=N)N)NC(=O)CNC(=O)[C@@H](NC(=O)[C@H](CCCNC(=N)N)NC(=O)[C@H](CS)NC(=O)[C@H](Cc1ccc(O)cc1)NC(=O)[C@H](CS)NC(=O)[C@@H](NC(=O)[C@H](C)N)[C@@H](C)O)[C@@H](C)O)[C@@H](C)O)C(C)C)C(=O)N[C@@H](CO)C(=O)NCC(=O)N[C@@H](CCCNC(=N)N)C(=O)N[C@@H](CC(C)C)C(=O)N[C@@H](Cc1ccc(O)cc1)C(=O)N[C@@H](CCCNC(=N)N)C(=O)N[C@@H](CC(C)C)C(=O)N[C@@H](CS)C(=O)N[C@@H](CS)C(=O)N[C@@H](CCCNC(=N)N)C(=O)O [HD5RED] (H-ATCYCRTGRCATRESLSGVCEISGRLYRLCCR-OH) | significantly impaired | heat release was higher than that of HD5OX | significantly inhibited the LPS-LBP interaction | 2.04 | 6.5 ± 0.8 | 12.9 ± 1.3 | – | 7.9 ± 1.1 | 19.5 ± 1.6 | – | adopted a different conformation with two negative ellipticities at 217 nm and 206 nm | transformed into a peptide containing α-helical structures | much stronger than that of HD5OX | dose-dependent LBP-blocking | less efficiency of HD5RED in inducing membrane depolarization relative to HD5OX; also recorded: significantly lower than that of HD5OX | 1.7 -fold | 2.0 -fold | less effective in forming rigid β-sheet structures
